Values of other authors in patent publication US5304296A, “Glass pH electrodes” (National Power PLC, priority 1990, dated 1994).

pKa at 20° C.: 6.62
Structure (SMILES): NC(=O)CN(CC(=O)O)CC(=O)O [ADA, N-(2-acetamido)iminodiacetic acid]
